# Target: T1, BRAF V600E (Homo sapiens, UniProt P15056, V600E)
# T1 construct: endogenous C-terminal HiBiT fusion tag on BRAF V600E allele; endogenous in cells; host or cells: A375 clone 1F10 (CRISPR-Cas9 knock-in of the HiBiT tag; parental A375 from ATCC)
# Assay: BRAF HiBiT degradation assay, C-terminal HiBiT-tagged BRAF V600E A375 cells (clone 1F10), Nano-Glo HiBiT Lytic assay
# Assay type: cell-based
# Conditions: for Dmax: A-375
# Source text: An A375 cell line expressing a homozygous V600E mutation was purchased from ATCC (Manassas, VA, USA). An A375 clone 1F10 cell line with an endogenous C-terminal HiBiT fusion tag on BRAF V600E allele was generated internally using CRISPR-Cas9 technology and cultured in DMEM, high glucose supplemented with 10% FBS and 1× GlutaMAX. A HCT-116 BRAF−/− cell line overexpressing the C-terminal HiBiT-tagged G466V, G469A, and D594G mutants were generated by lentiviral transduction, externally at Biosettia Inc (San Diego, CA, USA). The stably transfected cells were cultured in RPMI media supplemented with 10% FBS, 1× GlutaMAX, and 0.25 μg/ml puromycin. DMEM medium, RPMI 1640 medium, GlutaMAX, fetal bovine serum (FBS), and puromycin were purchased from Gibco (Grand Island, NY, USA). HCT-116 BRAF−/− cells were purchased from Horizon Discovery (Waterbeach, UK).
# The C-terminal HiBiT tagged BRAF A375 cells (monoclonal cell line, cell clone 1F10) were seeded at a density of 10,000 cells/well in 30 μL media (DMEM, high glucose supplemented with 10% FBS and 1× GlutaMAX) in white opaque 384-well plates (Corning #3570) from column 1 to column 23. The wildtype A375 cells were seeded in column 24 at the same cell density in 30 μL media. Cells were incubated at 37° C. with 5% CO2 for 24 h.
# Intermediate compound dilution series (5-point, ranging from 5 mM to 0.5 μM, 10-fold dilutions in DMSO) were prepared in a source plate (Beckman Coulter cat. no. 001-16128). Final compound dilution series (11-point, ranging from 1 μM to 0.01 nM, half-log dilutions in DMSO) were stamped into the assay plate (Corning #3570, column 1-11 and 12-22) using the Echo Acoustic Liquid Handler (Beckman Coulter). Each compound was plated in duplicate, and the total volume of compound DMSO solution was 60 nL/well (0.2% final DMSO concentration). DMSO was included in wells A23-L23 and A24-L24. The DMSO-treated HiBiT-tagged samples served as Negative Control (NC) and the DMSO-treated wildtype samples served as Background Control (BC) for the HiBiT assay.
# HiBiT signal was measured by a Nano-Glo HiBiT Lytic assay (Promega cat. no. N3050). HiBiT lytic detection reagent (Nano-Glo HiBiT Lytic Buffer with 1:50 Nano-Glo HiBiT Lytic Substrate and 1:100 LgBiT Protein, 40 μL) was added using Bravo. The mixture was incubated at room temperature, in the dark, and with gentle shaking for 10 min. Luminesce units (LU) were read on an EnVision plate reader 2105 (Perkin Elmer).
# Percent protein remaining and viability remaining per sample were calculated as follows: […]
# % Protein remaining values were plotted as a function of compound concentration. XC50 (DC50) values were determined by fitting curves using the following equation:
# For the HiBiT degradation assay, the key parameters reported include: • The dose of compound that produces 50% degradation (DC50 at 50%): • DC50 at 50%: the Fitted X value (Conc.) at Y=50 (response) • Observed Dmax (Obs. Dmax) is the percentage protein degraded at maximal compound effect relative to DMSO-treated control: […]
# [1] = A375 (BRAF V600E), DC50 at 50%: fitted conc. at Y=50
# [2] = A375 (BRAF V600E), percentage protein degraded at maximal compound effect relative to DMSO
# T1 sequence (P15056 whole entry V600E, the tested form may be a part): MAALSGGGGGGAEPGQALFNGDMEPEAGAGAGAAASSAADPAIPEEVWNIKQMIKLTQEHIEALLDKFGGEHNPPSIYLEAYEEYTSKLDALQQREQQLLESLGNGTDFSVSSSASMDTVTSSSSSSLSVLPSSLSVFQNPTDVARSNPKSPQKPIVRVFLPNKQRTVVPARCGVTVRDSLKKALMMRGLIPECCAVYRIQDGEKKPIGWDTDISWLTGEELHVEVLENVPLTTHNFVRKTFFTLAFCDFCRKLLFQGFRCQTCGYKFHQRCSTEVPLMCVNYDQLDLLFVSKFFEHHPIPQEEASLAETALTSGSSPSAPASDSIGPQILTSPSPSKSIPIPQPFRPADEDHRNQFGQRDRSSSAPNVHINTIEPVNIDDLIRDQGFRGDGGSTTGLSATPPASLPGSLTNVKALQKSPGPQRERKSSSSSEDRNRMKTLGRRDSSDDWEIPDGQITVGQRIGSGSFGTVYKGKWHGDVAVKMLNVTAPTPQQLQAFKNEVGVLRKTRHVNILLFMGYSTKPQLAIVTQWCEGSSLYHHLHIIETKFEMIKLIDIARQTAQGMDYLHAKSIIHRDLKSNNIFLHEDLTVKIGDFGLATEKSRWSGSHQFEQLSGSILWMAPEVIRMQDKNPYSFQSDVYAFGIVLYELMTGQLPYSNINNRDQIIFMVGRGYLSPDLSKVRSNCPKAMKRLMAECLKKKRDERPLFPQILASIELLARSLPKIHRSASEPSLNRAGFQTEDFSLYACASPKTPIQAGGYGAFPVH
SMILES,DC50 [1] [µM],Dmax [2] [%],"DC50 (A375 (BRAF V600E, Class 1), DC50 at 50% degradation) [µM]","Dmax (A375 (BRAF V600E, Class 1), observed Dmax, % protein degraded relative to DMSO control) [%]"
"CCCS(=O)(=O)Nc1cccc(-c2nc(C(C)(C)C)sc2-c2ccnc(Nc3cccc(C4CCN(CC[C@H]5CCN(c6ccc(C7CCC(=O)NC7=O)cn6)C5)CC4)c3)n2)c1F (mixture of isomers) [Compound 74, N-{3-[2-tert-butyl-5-(2-{[3-(1-{2-[(3S)-1-{5-[(3RS)-2,6-dioxopiperidin-3-yl]pyridin-2-yl}pyrrolidin-3-yl]ethyl}piperidin-4-yl)phenyl]amino}pyrimidin-4-yl)-1,3-thiazol-4-yl]-2-fluorophenyl}propane-1-sulfonamide]",0.01 to 0.05,30 to 70,–,–
"CCCS(=O)(=O)Nc1cccc(-c2nc(C(C)(C)C)sc2-c2ccnc(Nc3cnn(C4CCN(CC[C@@H]5CCN(c6ccc(C7CCC(=O)NC7=O)cn6)C5)CC4)c3)n2)c1F (mixture of isomers) [Compound 78, N-{3-[2-tert-butyl-5-(2-{[1-(1-{2-[(3R)-1-{5-[(3RS)-2,6-dioxopiperidin-3-yl]pyridin-2-yl}pyrrolidin-3-yl]ethyl}piperidin-4-yl)-1H-pyrazol-4-yl]amino}pyrimidin-4-yl)-1,3-thiazol-4-yl]-2-fluorophenyl}propane-1-sulfonamide]",0.01 to 0.05,> 70,–,–
"CCCS(=O)(=O)Nc1cccc(-c2nc(C(C)(C)C)sc2-c2ccnc(Nc3cnn(CC4CCN(CC[C@@H]5CCN(c6ccc(C7CCC(=O)NC7=O)cn6)C5)CC4)c3)n2)c1F (mixture of isomers) [Compound 81, N-(3-{2-tert-butyl-5-[2-({1-[(1-{2-[(3R)-1-{5-[(3RS)-2,6-dioxopiperidin-3-yl]pyridin-2-yl}pyrrolidin-3-yl]ethyl}piperidin-4-yl)methyl]-1H-pyrazol-4-yl}amino)pyrimidin-4-yl]-1,3-thiazol-4-yl}-2-fluorophenyl)propane-1-sulfonamide]",0.01 to 0.05,> 70,–,–
"CCCS(=O)(=O)Nc1cccc(-c2nc(C(C)(C)C)sc2-c2ccnc(Nc3cccc(OC4CCN(C(=O)C[C@H]5CCN(c6ccc(C7CCC(=O)NC7=O)cc6)C5)CC4)c3)n2)c1F (mixture of isomers) [Compound 91, N-(3-{2-tert-butyl-5-[2-({3-[(1-{2-[(3R)-1-{4-[(3RS)-2,6-dioxopiperidin-3-yl]phenyl}pyrrolidin-3-yl]acetyl}piperidin-4-yl)oxy]phenyl}amino)pyrimidin-4-yl]-1,3-thiazol-4-yl}-2-fluorophenyl)propane-1-sulfonamide]",0.05 to 0.5,30 to 70,–,–
"CCCS(=O)(=O)Nc1cccc(-c2nc(C(C)(C)C)sc2-c2ccnc(Nc3cccc(C4CCN(C(=O)[C@@H]5CCN(c6ccc(C7CCC(=O)NC7=O)cn6)C5)CC4)c3)n2)c1F (mixture of isomers) [Compound 102, N-[3-(2-tert-butyl-5-{2-[(3-{1-[(3R)-1-{5-[(3RS)-2,6-dioxopiperidin-3-yl]pyridin-2-yl}pyrrolidine-3-carbonyl]piperidin-4-yl}phenyl)amino]pyrimidin-4-yl}-1,3-thiazol-4-yl)-2-fluorophenyl]propane-1-sulfonamide]",0.01 to 0.05,30 to 70,–,–
"CCCS(=O)(=O)Nc1cccc(-c2nc(C(C)(C)C)sc2-c2ccnc(Nc3cnn(C4CCN(C(=O)C[C@@H]5CCN(c6ccc(C7CCC(=O)NC7=O)cc6)C5)CC4)c3)n2)c1F (mixture of isomers) [Compound 105, N-{3-[2-tert-butyl-5-(2-{[1-(1-{2-[(3S)-1-{4-[(3RS)-2,6-dioxopiperidin-3-yl]phenyl}pyrrolidin-3-yl]acetyl}piperidin-4-yl)-1H-pyrazol-4-yl]amino}pyrimidin-4-yl)-1,3-thiazol-4-yl]-2-fluorophenyl}propane-1-sulfonamide]",> 0.5,30 to 70,–,–
"CCCS(=O)(=O)Nc1cccc(-c2nc(C(C)(C)C)sc2-c2ccnc(Nc3cnn(C4CCN(C(=O)[C@@H]5CCN(c6ccc(C7CCC(=O)NC7=O)cn6)C5)CC4)c3)n2)c1F (mixture of isomers) [Compound 106, N-[3-(2-tert-butyl-5-{2-[(1-{1-[(3R)-1-{5-[(3RS)-2,6-dioxopiperidin-3-yl]pyridin-2-yl}pyrrolidine-3-carbonyl]piperidin-4-yl}-1H-pyrazol-4-yl)amino]pyrimidin-4-yl}-1,3-thiazol-4-yl)-2-fluorophenyl]propane-1-sulfonamide]",0.05 to 0.5,30 to 70,–,–
"CCCS(=O)(=O)Nc1cccc(-c2nc(C(C)(C)C)sc2-c2ccnc(Nc3ccc4c(c3)CCN(C(=O)[C@@H]3CCN(c5ccc(C6CCC(=O)NC6=O)cn5)C3)C4)n2)c1F (mixture of isomers) [Compound 121, N-(3-{2-tert-butyl-5-[2-({2-[(3R)-1-{5-[(3RS)-2,6-dioxopiperidin-3-yl]pyridin-2-yl}pyrrolidine-3-carbonyl]-1,2,3,4-tetrahydroisoquinolin-6-yl}amino)pyrimidin-4-yl]-1,3-thiazol-4-yl}-2-fluorophenyl)propane-1-sulfonamide]",0.05 to 0.5,30 to 70,–,–
"CCCS(=O)(=O)Nc1cccc(-c2nc(C(C)(C)C)sc2-c2ccnc(Nc3ccc(C4CCN(C(=O)C[C@@H]5CCN(c6ccc7c(c6)n(C)c(=O)n7C6CCC(=O)NC6=O)C5)CC4)cc3)n2)c1F (mixture of isomers) [Compound 162, N-{3-[2-tert-butyl-5-(2-{[4-(1-{2-[(3S)-1-{1-[(3RS)-2,6-dioxopiperidin-3-yl]-3-methyl-2-oxo-2,3-dihydro-1H-1,3-benzodiazol-5-yl}pyrrolidin-3-yl]acetyl}piperidin-4-yl)phenyl]amino}pyrimidin-4-yl)-1,3-thiazol-4-yl]-2-fluorophenyl}propane-1-sulfonamide]",0.01 to 0.05,30 to 70,–,–
"CCCS(=O)(=O)Nc1cccc(-c2nc(C(C)(C)C)sc2-c2ccnc(Nc3ccc(C4CCN(C(=O)C[C@@H]5CCN(c6ccc(C7CCC(=O)NC7=O)cc6)C5)CC4)cc3)n2)c1F (mixture of isomers) [Compound 166, N-{3-[2-tert-butyl-5-(2-{[4-(1-{2-[(3S)-1-{4-[(3RS)-2,6-dioxopiperidin-3-yl]phenyl}pyrrolidin-3-yl]acetyl}piperidin-4-yl)phenyl]amino}pyrimidin-4-yl)-1,3-thiazol-4-yl]-2-fluorophenyl}propane-1-sulfonamide]",0.05 to 0.5,30 to 70,–,–
"CCCS(=O)(=O)Nc1cccc(-c2nc(C(C)(C)C)sc2-c2ccnc(NC3CC4(C3)CN(CC[C@H]3CCN(c5ccc(C6CCC(=O)NC6=O)cn5)C3)C4)n2)c1F (mixture of isomers) [Compound 172, N-[3-(2-tert-butyl-5-{2-[(2-{2-[(3S)-1-{5-[(3RS)-2,6-dioxopiperidin-3-yl]pyridin-2-yl}pyrrolidin-3-yl]ethyl}-2-azaspiro[3.3]heptan-6-yl)amino]pyrimidin-4-yl}-1,3-thiazol-4-yl)-2-fluorophenyl]propane-1-sulfonamide]",0.05 to 0.5,30 to 70,–,–
"CCCS(=O)(=O)Nc1cccc(-c2nc(C3CCC4(CC3)CCN(C(=O)C[C@H]3CCN(c5ccc(C6CCC(=O)NC6=O)cc5)C3)CC4)sc2-c2ccnc(N)n2)c1F (mixture of isomers) [Compound 253, N-{3-[5-(2-aminopyrimidin-4-yl)-2-(3-{2-[(3R)-1-{4-[(3RS)-2,6-dioxopiperidin-3-yl]phenyl}pyrrolidin-3-yl]acetyl}-3-azaspiro[5.5]undecan-9-yl)-1,3-thiazol-4-yl]-2-fluorophenyl}propane-1-sulfonamide]",–,–,0.01 to 0.05,30 to 70
